Reference: patent US8609610B2, “Inhibitors of the trypsin-like site of the proteasome and methods of use thereof” (Trustees of Dartmouth College, priority 2011, dated 2013)

Experiments:
[1] = tested on: trypsin-like sites (β2) of proteasome in MM cells; experiment: PROTEASOMEGLO assay of proteasome inhibition in MM cells; format: cell-based
[2] = molecular target: β2 (trypsin-like site) of proteasome in HEK-293T cells (Homo sapiens, UniProt P49720+Q99436); experiment: Competition assay in living HEK-293T cells with activity-based probe; format: cell-based; conditions: 4 hours, 5 μM
Protocol: Proteasome inhibition in MM cells was measured with luminogenic substrates using PROTEASOMEGLO assay (Promega). […] An aliquot of culture was pelleted and medium was removed and replaced with PBS. The resulting cell suspension was mixed with luminogenic substrates in the manufacturer-provided lysis/assay buffer. After 3 minutes mixing on an orbital shaker, the plate was incubated in the dark for additional 17 minutes, followed by the measurements of the luminescence, performed in triplicate for each substrate/data point. Data were analyzed as for purified proteasomes. […] Cells (1×10^6 per well of a 6-well plate) were incubated with the inhibitors for 4 hours at 37° C. and this was followed by a 2 hour incubation with 5 μM BODIPY-TMR-epoxomicin. Subsequently, the medium was removed and the cells were washed with PBS and harvested. […] The supernatant was collected and the protein concentration was determined by the Bradford assay, and used to normalize gel loading. The samples were analysed by SDS-PAGE and fluorescent densitometry as described for competition experiment in cell lysates. IC50 values were calculated from three independent experiments using […] PRISM software.
Human embryonic kidney cells (some 1×10^6) were cultured in 6-well plates in DMEM containing 10% fetal calf serum, 10 units/mL penicillin and 10 μg/mL streptomycin in a 7% CO2 humidified incubator at 37° C. overnight. Part of the medium was taken and to this was added the appropriate inhibitor in DMSO (1 μL of a 1,000× stock solution), after which the medium was added to the cells. The cells were incubated with the inhibitors for 4 hours at 37° C. and this was followed by addition of MV151 (1 μL of a 5 mM stock solution in DMSO) and incubation for 2 hours at 37° C. Next, the medium was removed and the cells were washed with PBS and harvested. […] The supernatant was collected and the protein concentration was determined by the Bradford assay. All samples were normalized to the same protein concentration with lysis buffer.

RPMI-8226 cells = experiment: ALAMAR BLUE cell viability assay; format: cell-based; conditions: RPMI-8226 cells
Outline: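 Myeloma lines were grown in RPMI-1640 with 10% FBS; viability of myeloma cells was read by ALAMAR BLUE mitochondrial dye conversion. PBMNC viability used CELL TITER-GLO ATP luminescence. Caspase-3/7 activity in NCI-H929 and MM1.R was measured with the APO-ONE homogeneous assay.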

Cathepsin B, H, L, S = experiment: Cathepsin activity with pan-cathepsin substrate Z-FR-amc; format: cell-based
Protocol: Cathepsin B, H, L, S activity was measured with pan-cathepsin substrate Z-FR-amc (Kirschke & Wiederanders (1994) Methods Enzymol. 244:500-11) in extracts of cytosol-less cells at pH 6.0 (Screen, et al. (2010) supra). Cathepsin D activity was measured in cytosol-less extracts using SENSOLYTE 520 Cathepsin D Fluorometric Assay Kit (AnaSpec). Combined cathepsin D and E activity was measured using the same kit, in which cathepsin D substrate provided with the kit was replaced with 7-Methoxycoumarin-[…](Dnp)-X′-NH2 (SEQ ID NO:10; where “X′” stand for D-Arg) internally quenched fluorogenic substrate of cathepsin D and E. In this case, pH 3.0 assay buffer used for cell extraction. All activity observed using both procedures was inhibited by more than 98% by specific inhibitor of aspartic proteases pepstatin A.

β5 proteasome subunit = molecular target: T1, β5 proteasome subunit (Homo sapiens, UniProt P20618+P28074); experiment: Competition assay in HEK-293T cell lysate with MV151; format: biochemical; conditions: HEK-293T lysate, 50 μM
T1 construct: Whole cell lysates of HEK-293T or EL-4 cells were made by sonication; endogenous in cells; host or cells: HEK-293T
Outline: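 HEK-293T (13.5 μg protein, human β5) or EL-4 (9 μg protein, mouse β2i) lysates were treated with inhibitors for 1 h at 37 °C, then labelled with 0.5 μM MV151 for 1 h. Residual subunit activity was read as in-gel fluorescence after SDS-PAGE, with loss of the band indicating competition.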

[3] = tested on: myeloma cells U266 and AMO-1; experiment: Cytotoxicity in combination with β5-selective proteasome inhibitors; format: cell-based; conditions: PR671A with bortezomib or PR523
[4] = tested on: bortezomib-adapted cell lines AMO-1a and HL-60a; experiment: Combination in bortezomib-adapted cell lines; format: cell-based; conditions: in combination with bortezomib or PR523
[5] = tested on: bortezomib-refractory primary myeloma cells from patients; experiment: Combination in bortezomib-refractory primary myeloma cells; format: cell-based; conditions: in combination with bortezomib or PR523; primary cells from three patients
[6] = molecular target: T2, trypsin-like site of 26S proteasomes (Oryctolagus cuniculus, UniProt G1SWK8); experiment: Inhibition of purified 26S proteasomes, substrate Ac-RLR-amc; format: biochemical, rabbit; conditions: 26S proteasomes from rabbit muscles
T2 construct: IC50 for sites in 26S proteasomes: Tr-L; other: purified 26S proteasomes; other: 26S proteasomes from rabbit muscles
T2 sequence (G1SWK8 1-271): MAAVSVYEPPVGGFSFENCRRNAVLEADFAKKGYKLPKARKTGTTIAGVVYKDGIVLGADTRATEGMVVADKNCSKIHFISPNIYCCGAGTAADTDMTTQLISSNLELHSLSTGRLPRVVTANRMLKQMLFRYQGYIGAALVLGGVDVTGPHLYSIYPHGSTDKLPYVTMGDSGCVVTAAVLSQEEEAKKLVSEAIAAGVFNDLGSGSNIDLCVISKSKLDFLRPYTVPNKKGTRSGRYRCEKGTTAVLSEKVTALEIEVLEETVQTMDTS

[7] = tested on: trypsin-like site of 26S proteasomes; experiment: as above; format: biochemical, rabbit; conditions: rabbit 26S proteasomes
[8] = molecular target: T3, chymotrypsin-like site of 26S proteasomes (Oryctolagus cuniculus, UniProt G1T4Q9); experiment: Inhibition of purified 26S proteasomes, substrate Suc-LLVY-amc; format: biochemical, rabbit; conditions: >>30 no inhibition at 30 μM, >30 inhibition between 10 and 50% at 30 μM, read-out: IC50 for sites in 26S proteasomes: Chym-L
T3 sequence (G1T4Q9 1-263): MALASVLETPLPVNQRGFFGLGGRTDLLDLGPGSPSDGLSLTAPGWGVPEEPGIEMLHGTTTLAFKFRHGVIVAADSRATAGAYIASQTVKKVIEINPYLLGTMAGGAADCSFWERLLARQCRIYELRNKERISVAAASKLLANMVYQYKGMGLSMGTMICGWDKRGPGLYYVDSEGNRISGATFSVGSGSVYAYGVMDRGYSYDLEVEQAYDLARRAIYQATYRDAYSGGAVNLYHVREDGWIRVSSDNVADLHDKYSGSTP

[9] = molecular target: caspase-like site of 26S proteasomes (Oryctolagus cuniculus, UniProt A0A5F9DQW2); experiment: Inhibition of purified 26S proteasomes, substrate Ac-nLPnLD-amc; format: biochemical, rabbit; conditions: >>30 no inhibition at 30 μM, >30 inhibition between 10 and 50% at 30 μM, read-out: IC50 for sites in 26S proteasomes: Casp-L
Chain of caspase-like site of 26S proteasomes (A0A5F9DQW2 1-212): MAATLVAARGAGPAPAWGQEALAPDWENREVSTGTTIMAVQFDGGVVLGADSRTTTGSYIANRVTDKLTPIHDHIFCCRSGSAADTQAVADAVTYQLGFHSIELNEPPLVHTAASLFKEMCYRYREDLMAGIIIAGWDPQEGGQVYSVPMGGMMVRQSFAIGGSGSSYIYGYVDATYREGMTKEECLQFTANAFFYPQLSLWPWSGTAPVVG
Protocol: 26S proteasomes were purified from rabbit muscle using known methods (Screen, et al. (2010) supra). […] NOVEX Bis-Tris gels (12%, Invitrogen) with MOPS running buffer were used for electrophoretic separation of catalytic subunits modified by active-site probes. Inhibition of active sites inside cells was assayed using luminescent PROTEASOMEGLO assay (Promega; Moravec, et al. (2009) Anal. Biochem. 387:294-302) according to known methods (Britton, et al. (2009) supra).

[10] = molecular target: T4, trypsin-like sites (β2) of proteasome in MM cells (Homo sapiens, UniProt Q99436); experiment: PROTEASOMEGLO assay of proteasome inhibition in MM cells; format: cell-based; conditions: NCI-H929 cells treated overnight
T4 construct: endogenous in cells; host or cells: NCI-H929, RPMI-8226 and other MM cell lines
T4 sequence (Q99436 44-277): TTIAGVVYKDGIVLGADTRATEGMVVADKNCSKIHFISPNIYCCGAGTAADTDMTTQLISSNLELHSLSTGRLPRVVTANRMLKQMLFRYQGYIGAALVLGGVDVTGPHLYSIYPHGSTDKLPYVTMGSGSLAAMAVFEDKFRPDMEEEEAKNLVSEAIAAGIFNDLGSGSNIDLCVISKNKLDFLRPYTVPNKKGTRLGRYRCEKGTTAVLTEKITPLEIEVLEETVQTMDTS

[11] = tested on: Caspase-3/7 activity in NCI-H929 and MM1.R cell lines; experiment: APO-ONE caspase-3/7 assay; format: cell-based; conditions: combination of NC-001 and NC-002
Protocol: RPMI-8226 and NCI-H929 cells were cultured in RPMI-1640 supplemented with 10% fetal bovine serum, penicillin, streptomycin, and plasmocin in 5% CO2 humidified incubator. HEK-293T cells were cultured in DMEM containing 10% fetal calf serum, 10 units/mL penicillin, and 10 μg/mL streptomycin in a 7% CO2 humidified incubator. Viability of multiple myeloma cells was measured with ALAMAR BLUE mitochondrial dye conversion assay. Viability of peripheral blood mononuclear cells (PBMNCs) was measured using CELL TITER-GLO luminescent cell viability assay (Promega), which is based on quantification of ATP present in the cells. Caspase-3/7 activity was measured using APO-ONE 3/7 homogeneous assay (Promega).

β2 and β2i sites = experiment: MV-151 label-competition in extracts of RPMI-8226 MM cells; format: biochemical; conditions: extracts of RPMI-8226 cells, MV-151 probe
Excerpt: Multiple myeloma cells express constitutive proteasomes and immunoproteasomes, and substrates used for the measurement of activity were cleaved by both. To determine whether there were any differences in inhibition of constitutive proteasomes or immunoproteasomes by NC-002, NC-012, and NC-022, the fluorescent activity-based probe MV-151 (Verdoes, et al. (2006) Chem. Biol. 13:1217-1226) was used in a label-competition experiment. Extracts of RPMI-8226 MM cells (which express more immunoproteasomes than NCI-H929 cells) were treated first with the NC inhibitors and then with the MV-151 probe. This was followed by fractionation on SDS-PAGE to separate proteasome subunits and imaging to reveal those subunits labeled by the probe (i.e., unmodified by the inhibitors).

| SMILES | difference in IC50 for trypsin-like activity between NCI-H929 and RPMI-8226 [1] | time to steady-state proteasome inhibition ([1]; RPMI-8226 cells) [h] | inhibition of β2 activity in living cells [2] | sensitization to bortezomib (RPMI-8226 cells) | sensitization to carfilzomib (RPMI-8226 cells) | inhibition of cathepsins (Z-FR-amc) (Cathepsin B, H, L, S; NCI-H929 cells, 6 hour treatment) | inhibition of β5 in cell lysate (β5 proteasome subunit) | cytotoxicity of combination [3] | effect on bortezomib resistance [4] | effect on bortezomib resistance [5] | proteasome inhibitory potential on purified 26S proteasomes [6] | IC50 (Chym-L)/IC50 (Tr-L) [7] | IC50 [8] [µM] | IC50 [9] [µM] | inhibition of trypsin-like activity in live cells [10] | inhibition of lysosomal cysteine proteases (Cathepsin B, H, L, S) | caspase activity (apoptosis) [11] | inhibition of constitutive (β2) versus immunoproteasome (β2i) trypsin-like sites (β2 and β2i sites) |
| --- | --- | --- | --- | --- | --- | --- | --- | --- | --- | --- | --- | --- | --- | --- | --- | --- | --- | --- |
| CC(C)C[C@H](NC(=O)[C@H](Cc1ccccc1)N=[N+]=[N-])C(=O)N[C@@H](CC(C)C)C(=O)N[C@H](/C=C/S(C)(=O)=O)Cc1ccc(CN)cc1 [Compound 4a, N3Phe-Leu-Leu-Phe (4-CH2NH2) VS] | three-fold | 1 | inhibiting (almost) all β2 activity | sensitized RPMI-8226 cells to bortezomib | slightly more potent sensitizer to carfilzomib than was NC-022 | Partial inhibition of cathepsins | completely blocked β5 | synergistic cytotoxicity | overcomes bortezomib resistance | overcomes bortezomib resistance | – | – | – | – | – | – | – | – |
| CC(=O)N[C@@H](CC(C)C)C(=O)N[C@@H](CC(C)C)C(=O)N[C@@H](CCCNC(=N)N)C(=O)[C@@]1(C)CO1 [NC-002, Ac-Leu-Leu-Arg-ek] | – | – | – | – | – | – | – | – | – | – | potent and specific inhibitors of the trypsin-like sites | >30 | > 30 | > 30 | sub-micromolar concentrations | did not inhibit | did not cause any significant increase in caspase activity | equipotent inhibitors of the trypsin-like sites of constitutive and immunoproteasomes |
